Experimental data taken from patent US20200283742A1, “METHOD FOR IMPROVING ACTIVITY OF PET-DEGRADING ENZYME BY USING ADDITIVE [As Amended]” (KEIO UNIVERSITY, priority 2017, published 2020).

Assays:
[1] = biological target: T1, PETase (Piscinibacter sakaiensis, UniProt A0A0K8P6T7); assay: PET-hydrolyzing activity of PETase on PET film in presence of surfactant (amount of degradation product MHET by HPLC); format: biochemical, Ideonella sp. No. 201-F6 strain; settings: for PET-hydrolyzing activity compared with control (FIG. 2): surfactant 0.01% (w/v), pre-incubation 30° C. 1 hour, reaction 3 hours; for Relative activity: 0.01% SDS vs control
T1 construct: made in house; host or cells: Escherichia coli BL21 Codon Plus (DE3) RIPL
T1 sequence (A0A0K8P6T7 28-290): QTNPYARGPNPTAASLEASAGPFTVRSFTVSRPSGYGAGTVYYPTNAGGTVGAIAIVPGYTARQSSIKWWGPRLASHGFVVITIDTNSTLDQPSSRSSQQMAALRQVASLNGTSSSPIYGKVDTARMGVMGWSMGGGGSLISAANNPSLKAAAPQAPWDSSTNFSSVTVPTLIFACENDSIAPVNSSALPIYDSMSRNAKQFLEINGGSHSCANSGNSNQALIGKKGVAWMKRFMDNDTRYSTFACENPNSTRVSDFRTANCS
Description: In addition to the optimal conditions, a surfactant was added in a concentration of 0.001 to 0.01 (w/v) %, and the activity was then measured. As surfactants, six types of surfactants, namely. [A] Sodium Cholate (SC), [B] 3-[(3-Cholamidopropyl)dimethylammonio]propanesulfonate (CHAPS), [C] Sodium dodecyl sulfate (SDS), [D] Octylphenol ethoxylate (Triton X-114), [E] Polysorbate 80 (Tween 80), [F] and Dodecyltrimethylammoniumu chloride (DTMA-Cl), were used (FIG. 1). The surfactant, a buffer and a film were added to the reaction system, and the obtained mixture was then pre-incubated at 30° C. for 1 hour. Thereafter, the concentration of the enzyme was set at 50 nM, the film area was set at 3.39 cm^2/mL, and the reaction was carried out for 3 hours.
A system, to which no surfactants were added, was used as a control.
The film area was changed, and the enzyme concentration was set at 50 nM or 500 nM, and thereafter, the activity was measured under the optimal conditions and in the presence of 0.01(v/v) % SDS. Moreover, a comparison was made regarding the case of setting the enzyme concentration at 50 nM and the amount of the degradation product (monohydroxyethyl terephthalate (MHET)) depending on the reaction time.
The amount of the degradation product was measured by reverse phase high performance liquid chromatography (HPLC) in accordance with the method described in International Publication WO 2015/025861.
The pre-incubation time after addition of SDS was set at 0 or 1 hour, the reaction time was set at 1 hour, the enzyme concentration was set at […], and the film area was set at 3.39 cm^2/mL. Thereafter, a comparison was made in terms of the activity under the optimal conditions.
The enzyme concentration was set at 500 nM, the SDS concentration and the film area were changed, and the activity under the optimal conditions was then measured.

[2] = biological target: T1, PETase; assay: Amount of enzyme adsorbed on PET film (SDS-PAGE); parameters: species or system Ideonella sp. No. 201-F6 strain; settings: SDS 0.01 to 0.04 (w/v) %; enzyme 500 nM; pre-incubation 1 hour; reaction 3 hours; film area 1.13 cm^2/mL
Description: The amount of the enzyme adsorbed on the film was observed under conditions in which the activity was changed by addition of a surfactant. SDS was added to the reaction system to result in a concentration of 0.01 (w/v) % to 0.04 (w/v) %, in addition to conditions of an enzyme concentration of 500 nM, a pre-incubation time of 1 hour, a reaction time of 3 hours, and a film area of 1.13 cm^2/mL. After completion of the reaction, the film was removed using tweezers, and was then rinsed with distilled water. The film was placed on the lid of a 1.5-mL tube, and thereafter, 10 μL of an SDS-PAGE sample buffer was added thereto. After that, the resultant was left at rest for 10 minutes, and was then centrifuged. The thus centrifuged solution was subjected to SDS-PAGE. Moreover, in addition to the conditions without addition of surfactants, a comparison was made with conditions including addition of DTMA-Cl that was a cationic surfactant.

[3] = biological target: T1, PETase; assay: pNPB (p-nitrophenyl-butyrate)-hydrolyzing activity; format: biochemical, Ideonella sp. No. 201-F6 strain; settings: 0.01 (w/v) % SDS; enzyme 250 nM; substrate pNPB
Description: In the following examples, the activity of PETase (PET-hydrolyzing activity) was measured using, as indicators, the amount of a degradation product and pNPB (p-nitrophenyl-butyrate)-hydrolyzing activity. Hereafter, a method of measuring pNPB (p-nitrophenyl-butyrate)-hydrolyzing activity is described.
pNPB used as an artificial substrate in the measurement of esterase activity is hydrolyzed into 1-butanoic acid and p-nitrophenol (pNP).
The pNPB-hydrolyzing activity immediately after purification of the enzyme was measured. The composition of a reaction solution is shown in Table 1. pNPB was dissolved in dimethyl sulfoxide (DMSO). The enzyme was mixed with a buffer, and the obtained mixture was then incubated at 30° C. for 30 minutes. Thereafter, the substrate was added to the reaction mixture, and a change in the absorbance at 425 nm for 1 minute was measured three times. The inclination (ΔAbs) of the measured absorbance change was applied to the following equation to obtain catalyst turnover frequency.
TOF: Catalyst turnover frequency; ε: Molar absorption coefficient; c: Enzyme concentration; 1: Thickness of solution layer; Δt: Reaction time.
The p-nitrophenyl-butyrate(pNPB)-hydrolyzing activity was measured in the presence of 0.01 (w/v) % SDS, in addition to the conditions shown in Table 1.

[4] = enzyme 50 nM, film area 3.39 cm^2/mL
[5] = enzyme 50 nM, film area 1.13 cm^2/mL
[6] = enzyme 50 nM, film area 2.26 cm^2/mL
[7] = enzyme 50 nM, film area 5.65 cm^2/mL
[8] = enzyme 50 nM, film area 9.04 cm^2/mL
[9] = enzyme 50 nM, film area 11.3 cm^2/mL
[10] = enzyme 500 nM, film area 1.13 cm^2/mL
[11] = enzyme 500 nM, film area 2.26 cm^2/mL
[12] = enzyme 500 nM, film area 3.39 cm^2/mL
[13] = enzyme 500 nM, film area 5.65 cm^2/mL
[14] = enzyme 500 nM, film area 9.04 cm^2/mL
[15] = enzyme 500 nM, film area 11.3 cm^2/mL

Compound: CCCCCCCCCCCC[N+](C)(C)C.[Cl-] [DTMA-Cl, Dodecyltrimethylammoniumu chloride]
- PET-hydrolyzing activity compared with control (FIG. 2) [1, 4]: the activity was significantly decreased

Compound: CCCCCCCCCCCCOS(=O)(=O)[O-].[Na+] [SDS, Sodium dodecyl sulfate]
- Amount of enzyme (protein) adsorbed on film (FIG. 7) [2]: adsorption of a large amount of protein was confirmed
- Reduction of pNPB-hydrolyzing activity after addition of SDS (FIG. 4) [3]: approximately 5%
- Relative activity [1, 5]: 2.47 fold
- Relative activity [1, 6]: 1.99 fold
- Relative activity [1, 4]: 1.86 fold
- Relative activity [1, 7]: 1.75 fold
- Relative activity [1, 8]: 1.99 fold
- Relative activity [1, 9]: 1.72 fold
- Relative activity [1, 10]: 2170 fold
- Relative activity [1, 11]: 50.6 fold
- Relative activity [1, 12]: 6.01 fold
- Relative activity [1, 13]: 3.58 fold
- Relative activity [1, 14]: 3.32 fold
- Relative activity [1, 15]: 3.11 fold
- Activity relative to control ([1]; addition of SDS, enzyme 50 nM, film area 1.13 cm^2/mL): approximately 2.5 times
- Activity relative to control ([1]; addition of SDS, enzyme 50 nM, film area 11.3 cm^2/mL): approximately 1.7 times
- PET-hydrolyzing activity versus control ([1]; addition of SDS, enzyme 500 nM): the activity was exhibited, although almost no activity was exhibited in the case of the control
- Activity upon addition of 0.01% SDS [1, 5]: 793 h⁻¹
- Activity upon addition of 0.01% SDS [1, 6]: 901 h⁻¹
- Activity upon addition of 0.01% SDS [1, 4]: 1020 h⁻¹
- Activity upon addition of 0.01% SDS [1, 7]: 1270 h⁻¹
- Activity upon addition of 0.01% SDS [1, 8]: 1680 h⁻¹
- Activity upon addition of 0.01% SDS [1, 9]: 1910 h⁻¹
- Activity upon addition of 0.01% SDS [1, 10]: 154 h⁻¹
- Activity upon addition of 0.01% SDS [1, 11]: 260 h⁻¹
- Activity upon addition of 0.01% SDS [1, 12]: 297 h⁻¹
- Activity upon addition of 0.01% SDS [1, 13]: 451 h⁻¹
- Activity upon addition of 0.01% SDS [1, 14]: 660 h⁻¹
- Activity upon addition of 0.01% SDS [1, 15]: 743 h⁻¹
- Optimal SDS concentration (FIG. 6) ([1]; enzyme 500 nM, film area of up to 5.65 cm^2/mL): 0.02 (w/v) %
- Optimal SDS concentration (FIG. 6) ([1]; enzyme 500 nM, film area of up to 11.3 cm^2/mL): 0.03 (w/v) %
- Change over time in amount of PET degradation product / enzyme stability (FIG. 3) ([1]; in presence of SDS, enzyme 50 nM, reaction of 3 hours): almost no activity decrease took place
- Amount of degradation product depending on pre-incubation time (FIG. 5) ([1]; pre-incubation after SDS addition 0 or 1 hour, reaction 1 hour, enzyme 50 nM, film area 3.39 cm^2/mL): the amount of a degradation product was changed depending on the pre-incubation time
- PET-hydrolyzing activity compared with control (FIG. 2) [1, 4]: approximately two times greater than the activity of the control

Compound: Polysorbate 80 [Tween 80]
- PET-hydrolyzing activity compared with control (FIG. 2) [1, 4]: the activity was found with the surfactants other than Tween 80 and DTMA-Cl
